Assay results taken from US20080118979A1, “Methods of regulating expression of genes or of gene products using substituted tetracycline compounds” (Paratek Pharmaceuticals, Inc., priority 2006, published 2008).

How the values were obtained:
[1] = Mansuy and Bujard Curr. Op. Neurobiol. 10:593-96; cited from earlier work
[2] = tested on: transactivator fusion protein; conditions: as demonstrated in U.S. Pat. No. 5,789,156; cited from earlier work
rtTA2-MT2 = test: rtTA-mediated gene activation, luciferase positive cell line MT2; format: cell-based
Text: FIGS. 2A-2D show a comparison of doxycycline and 9-t-butyl doxcycline in 34R and MT2 rtTA mutants. FIGS. 2A and 2B show the effect of doxycyline on 34R and MT2 mutants, respectively. FIGS. 2C and 2D show the effect of 9-t-butyl doxycycline on 34R and MT2 mutants, respectively.

[3] = tested on: tetR, luxCDABE operon under the regulation of the tetA promotor/operator; test: JE305K+pTetLux1 tet detection system (Klux); format: cell-based
Text: In another embodiment, a tetracycline compound of the invention can be used to regulate transcription of a gene or gene product under the control of a native Tet operator and in the presence of a native TetR in a cell. In one embodiment, the invention pertains to such a cell. For example, JE305K is a strain that has disrupted acrB and waaP genes and comprises a plasmid which contains tetR, and the luxCDABE operon (from P. luminescens) under the regulation of the tetA promotor/operator.
The substituted tetracycline compounds were examined in a dose response analysis using the JE305K+pTetLux1 tet detection system. JE305K is a strain that has disrupted acrB and waaP genes. pTetLux1 is a plasmid which contains tetR, and has the luxCDABE operon (from P. luminescens) under the regulation of the tetA promotor/operator. The plasmid was obtained from the University of Turku, Finland.

For C[C@H]1c2cccc(O)c2C(=O)C2=C(O)[C@]3(O)C(=O)C(C(N)=O)=C(O)[C@@H](N(C)C)[C@@H]3[C@@H](O)[C@@H]21 [doxycycline], the “penetration of the blood-brain barrier” value [1] is given as “limited penetration of the blood-brain barrier”.

For Cc1c2c(c(O)c3c(O)cccc13)C(=O)[C@]1(O)C(=O)C(C(N)=O)=C(O)[C@@H](N(C)C)[C@@H]1C2 [anhydrotetracycline], the “strength as inducing agent” value [2] is listed as “strong inducing agents”.

In the case of 5-phenylcarbamate doxcycline, the “activation of rtTA2s-M2 compared with doxycycline” value (rtTA2-MT2) is reported as “two fold better activator”.

With CCCC#Cc1ccc(O)c2c1C[C@H]1C[C@H]3[C@H](N(C)C)C(O)=C(C(N)=O)C(=O)[C@@]3(O)C(O)=C1C2=O the “activity in the JE305K+pTetLux1 assay” value [3] was “active”.
